The record followed here is patent publication US8829199B2, “Aminopyrazole derivative” (Chugai Seiyaku Kabushiki Kaisha, priority 2009, dated 2014).

A value given as a limit tells only on which side of the number the result lay.

The target of one assay is human FGFR3 enzyme (Homo sapiens (Human), UniProt P22607). Description: Inhibitory activity against the FGFR3 enzyme (phosphorylation of biotinylated peptide, time-resolved fluorescence).
Another assay has as its target human FGFR2 enzyme (Homo sapiens (Human), UniProt P21802). The assay can be described thus: Inhibitory activity against the FGFR2 enzyme (phosphorylation of biotinylated peptide, time-resolved fluorescence).
A further assay has as its target human FGFR1 enzyme (Homo sapiens (Human), UniProt P11362). The assay can be described thus: Inhibitory activity against the FGFR1 enzyme (phosphorylation of biotinylated peptide, time-resolved fluorescence).

Chain of human FGFR3 enzyme (P22607 23-806): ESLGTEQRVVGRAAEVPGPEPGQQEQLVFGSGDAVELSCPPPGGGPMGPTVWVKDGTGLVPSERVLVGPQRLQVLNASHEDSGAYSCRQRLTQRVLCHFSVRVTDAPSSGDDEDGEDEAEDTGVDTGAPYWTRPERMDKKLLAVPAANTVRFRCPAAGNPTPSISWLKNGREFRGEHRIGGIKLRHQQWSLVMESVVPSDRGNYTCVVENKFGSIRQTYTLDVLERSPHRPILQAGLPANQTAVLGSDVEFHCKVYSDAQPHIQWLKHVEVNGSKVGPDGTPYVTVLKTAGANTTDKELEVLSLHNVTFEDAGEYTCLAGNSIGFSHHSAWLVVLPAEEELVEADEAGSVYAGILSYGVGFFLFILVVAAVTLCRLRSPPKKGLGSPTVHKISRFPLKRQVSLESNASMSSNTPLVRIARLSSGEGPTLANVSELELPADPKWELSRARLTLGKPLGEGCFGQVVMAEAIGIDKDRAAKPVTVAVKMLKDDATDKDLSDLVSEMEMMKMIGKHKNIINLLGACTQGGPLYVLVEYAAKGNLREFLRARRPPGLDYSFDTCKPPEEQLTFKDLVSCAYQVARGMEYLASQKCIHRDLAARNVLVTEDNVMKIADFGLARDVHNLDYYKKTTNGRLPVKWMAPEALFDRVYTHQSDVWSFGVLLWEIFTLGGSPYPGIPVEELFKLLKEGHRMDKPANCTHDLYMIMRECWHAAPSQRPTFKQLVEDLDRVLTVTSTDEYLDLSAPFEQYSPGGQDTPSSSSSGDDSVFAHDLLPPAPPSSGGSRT
Chain of human FGFR2 enzyme (P21802 22-821): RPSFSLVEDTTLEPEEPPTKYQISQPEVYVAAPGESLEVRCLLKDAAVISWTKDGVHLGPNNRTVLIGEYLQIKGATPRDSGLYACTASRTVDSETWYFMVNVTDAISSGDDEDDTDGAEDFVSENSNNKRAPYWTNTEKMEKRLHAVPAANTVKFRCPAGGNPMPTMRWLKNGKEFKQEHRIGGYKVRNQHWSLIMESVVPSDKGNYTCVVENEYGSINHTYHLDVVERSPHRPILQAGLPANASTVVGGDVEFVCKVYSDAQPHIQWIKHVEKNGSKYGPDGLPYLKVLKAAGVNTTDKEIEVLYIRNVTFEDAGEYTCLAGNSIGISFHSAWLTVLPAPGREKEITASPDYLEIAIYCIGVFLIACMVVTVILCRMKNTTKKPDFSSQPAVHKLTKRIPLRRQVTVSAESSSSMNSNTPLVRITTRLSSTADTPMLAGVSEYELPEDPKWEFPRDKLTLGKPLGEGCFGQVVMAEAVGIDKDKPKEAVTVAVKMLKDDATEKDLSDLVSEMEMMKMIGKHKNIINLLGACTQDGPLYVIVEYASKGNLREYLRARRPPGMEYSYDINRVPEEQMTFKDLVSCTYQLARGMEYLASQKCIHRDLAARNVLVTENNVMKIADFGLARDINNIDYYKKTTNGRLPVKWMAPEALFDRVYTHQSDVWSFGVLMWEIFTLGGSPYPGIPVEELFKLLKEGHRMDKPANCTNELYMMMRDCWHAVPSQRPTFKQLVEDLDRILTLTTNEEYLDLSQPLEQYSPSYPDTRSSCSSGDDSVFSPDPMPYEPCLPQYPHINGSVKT
Chain of human FGFR1 enzyme (P11362 22-822): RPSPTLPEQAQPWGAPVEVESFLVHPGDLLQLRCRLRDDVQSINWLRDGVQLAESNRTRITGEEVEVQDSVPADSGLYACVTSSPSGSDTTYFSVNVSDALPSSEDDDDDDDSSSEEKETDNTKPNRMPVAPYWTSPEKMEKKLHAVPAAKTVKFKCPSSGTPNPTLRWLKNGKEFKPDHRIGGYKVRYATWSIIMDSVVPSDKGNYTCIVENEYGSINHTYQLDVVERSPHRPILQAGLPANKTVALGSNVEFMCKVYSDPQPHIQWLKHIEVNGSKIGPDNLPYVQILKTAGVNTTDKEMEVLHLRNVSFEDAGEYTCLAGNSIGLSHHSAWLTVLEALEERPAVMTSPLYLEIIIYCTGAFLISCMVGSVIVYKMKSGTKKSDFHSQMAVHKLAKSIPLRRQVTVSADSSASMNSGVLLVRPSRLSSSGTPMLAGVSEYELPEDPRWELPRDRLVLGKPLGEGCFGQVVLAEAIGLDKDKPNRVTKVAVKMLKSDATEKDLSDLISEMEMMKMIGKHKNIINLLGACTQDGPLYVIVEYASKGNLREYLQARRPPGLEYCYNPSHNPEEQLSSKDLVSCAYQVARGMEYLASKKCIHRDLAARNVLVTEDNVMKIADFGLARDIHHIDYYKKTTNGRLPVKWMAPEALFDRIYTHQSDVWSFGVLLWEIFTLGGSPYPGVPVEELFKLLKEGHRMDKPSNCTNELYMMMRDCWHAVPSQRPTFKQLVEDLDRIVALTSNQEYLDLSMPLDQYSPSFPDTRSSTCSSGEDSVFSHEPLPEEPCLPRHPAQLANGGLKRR
Description for human FGFR1 enzyme: Inhibitory Activity Against the FGFR1 Enzyme
(§1) Phosphorylated biotinylated peptides were detected by the time-resolved fluorescent measurement using a europium cryptate-linked anti-phophotyrosine antibody and a streptavidin to which XL665, a derivative of allophycocyanine, is linked.
Description for human FGFR2 enzyme: as §1
Description for human FGFR3 enzyme: Inhibitory Activity Against the FGFR3 Enzyme
as §1

In the case of `Cc1nc2cc(-n3ncc(C(=O)c4cc5ccc(-c6ccnnc6)cc5[nH]4)c3N)ccc2[nH]1` [Example 89, [5-amino-1-(2-methyl-1H-benzimidazol-5-yl)-1H-pyrazol-4-yl]-(6-pyridazin-4-yl-1H-indol-2-yl)-methanone], the IC50 on human FGFR3 enzyme was ≤ 300 nM. Turning to `Cc1nc2cc(-n3ncc(C(=O)c4cc5ccc(-c6ccc(N7CCNCC7)nc6)cc5[nH]4)c3N)ccc2[nH]1` [Example 110, [5-amino-1-(2-methyl-1H-benzimidazol-5-yl)-1H-pyrazol-4-yl]-[6-(6-piperazin-1-yl-pyridin-3-yl)-1H-indol-2-yl]-methanone], the half-inhibitory concentration (IC50) on human FGFR3 enzyme, against human FGFR2 enzyme and on human FGFR1 enzyme was ≤ 300 nM in each case. Take `Cc1nc2cc(-n3ncc(C(=O)c4cc5cc6c(cc5[nH]4)OCO6)c3N)ccc2[nH]1` [Example 61, [5-amino-1-(2-methyl-1H-benzimidazol-5-yl)-1H-pyrazol-4-yl]-(5H-[1,3]dioxolo[4,5-f]indol-6-yl)-methanone]: the concentration for half-maximal inhibition (IC50) against human FGFR3 enzyme is ≤ 300 nM.

As to `Cc1ccnc(-c2ccc3cc(C(=O)c4cnn(-c5ccc6[nH]c(C)nc6c5)c4N)[nH]c3c2)c1` [Example 32], on human FGFR3 enzyme, the IC50 is ≤ 300 nM.

As usually defined, the IC50 is the concentration that inhibits the measured activity by half.
